US8691753B2 (priority 2009, dated 2014)
Read-outs that look alike come from different tables or passages of the source.

How the values were obtained:
Type in all cases: biochemical
MMP-9h = MMP-9h (Homo sapiens (Human), UniProt P14780); assay: Inhibition constant (Ki) on MMP-9h; conditions: human MMP-9
Text: (§1) The inhibition constant Ki of these compounds has been determined according to the protocol described by Devel et al, 2006, J. Biol. Chem. (7).
(§2) In this table I and also in table II below, “h” corresponds to human. All of the compounds have therefore been evaluated on human MMPs.

MMP-3h = MMP-3h (Homo sapiens (Human), UniProt P08254); assay: Inhibition constant (Ki) on MMP-3h; conditions: human MMP-3
Text: as §1, §2

MMP-12h = MMP-12h (Homo sapiens (Human), UniProt P39900); assay: Inhibition constant (Ki) on MMP-12h; conditions: human MMP-12
MMP-13h = MMP-13h (Homo sapiens (Human), UniProt P45452); assay: Inhibition constant (Ki) on MMP-13h; conditions: human MMP-13
Text: as §1, §2

MMP-8h = MMP-8h (Homo sapiens (Human), UniProt P22894); assay: Inhibition constant (Ki) on MMP-8h; conditions: human MMP-8
MMP-2h = MMP-2h (Homo sapiens (Human), UniProt P08253); assay: Inhibition constant (Ki) on MMP-2h; conditions: human MMP-2
Text: as §1, §2

MMP-14h = MMP-14h (Homo sapiens (Human), UniProt P50281); assay: Inhibition constant (Ki) on MMP-14h; conditions: human MMP-14
Text: as §1, §2

MMP-10h = MMP-10h (Homo sapiens (Human), UniProt P09238); assay: Inhibition constant (Ki) on MMP-10h; conditions: human MMP-10
Chain of MMP-10h (P09238 99-476): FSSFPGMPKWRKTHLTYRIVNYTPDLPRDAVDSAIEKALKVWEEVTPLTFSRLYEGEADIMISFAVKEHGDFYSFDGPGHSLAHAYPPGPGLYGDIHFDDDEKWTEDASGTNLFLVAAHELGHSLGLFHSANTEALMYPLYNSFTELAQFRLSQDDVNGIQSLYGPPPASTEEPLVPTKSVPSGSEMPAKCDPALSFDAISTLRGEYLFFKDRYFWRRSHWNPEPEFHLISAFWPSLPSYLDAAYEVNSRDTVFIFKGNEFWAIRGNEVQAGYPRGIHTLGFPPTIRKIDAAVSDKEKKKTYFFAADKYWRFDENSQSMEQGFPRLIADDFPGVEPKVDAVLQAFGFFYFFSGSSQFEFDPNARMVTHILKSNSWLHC

Chain of MMP-8h (P22894 101-467): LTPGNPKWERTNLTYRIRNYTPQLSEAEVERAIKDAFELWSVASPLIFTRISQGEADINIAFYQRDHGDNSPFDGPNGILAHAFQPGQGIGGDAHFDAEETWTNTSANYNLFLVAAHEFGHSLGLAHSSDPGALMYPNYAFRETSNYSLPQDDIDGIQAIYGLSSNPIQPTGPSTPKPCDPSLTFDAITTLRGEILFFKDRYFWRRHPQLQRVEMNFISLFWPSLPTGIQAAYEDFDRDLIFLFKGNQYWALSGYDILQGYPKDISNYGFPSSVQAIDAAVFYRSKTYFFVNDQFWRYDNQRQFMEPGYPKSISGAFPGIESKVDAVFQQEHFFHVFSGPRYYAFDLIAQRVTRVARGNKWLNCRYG
Chain of MMP-12h (P39900 106-470): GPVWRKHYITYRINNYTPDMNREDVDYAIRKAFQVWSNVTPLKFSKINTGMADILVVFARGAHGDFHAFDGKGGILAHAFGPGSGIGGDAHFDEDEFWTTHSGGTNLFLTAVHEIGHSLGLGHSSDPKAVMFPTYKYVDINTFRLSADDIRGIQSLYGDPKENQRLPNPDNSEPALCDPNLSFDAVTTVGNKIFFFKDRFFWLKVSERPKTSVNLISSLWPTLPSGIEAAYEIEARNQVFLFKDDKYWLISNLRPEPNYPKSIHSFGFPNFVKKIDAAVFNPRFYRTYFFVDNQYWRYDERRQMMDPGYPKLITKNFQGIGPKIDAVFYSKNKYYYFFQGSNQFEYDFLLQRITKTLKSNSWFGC
Chain of MMP-3h (P08254 100-477): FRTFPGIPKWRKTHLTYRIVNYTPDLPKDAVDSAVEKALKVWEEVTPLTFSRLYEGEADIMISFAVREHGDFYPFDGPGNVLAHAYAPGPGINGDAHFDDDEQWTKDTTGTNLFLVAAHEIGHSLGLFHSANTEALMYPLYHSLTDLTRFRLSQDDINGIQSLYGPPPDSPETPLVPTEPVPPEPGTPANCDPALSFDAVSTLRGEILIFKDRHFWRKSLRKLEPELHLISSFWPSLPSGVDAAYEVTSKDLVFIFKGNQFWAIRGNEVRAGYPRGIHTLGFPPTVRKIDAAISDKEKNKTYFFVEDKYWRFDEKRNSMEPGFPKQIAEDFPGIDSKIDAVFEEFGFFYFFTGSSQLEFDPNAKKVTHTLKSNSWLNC
Chain of MMP-2h (P08253 110-660): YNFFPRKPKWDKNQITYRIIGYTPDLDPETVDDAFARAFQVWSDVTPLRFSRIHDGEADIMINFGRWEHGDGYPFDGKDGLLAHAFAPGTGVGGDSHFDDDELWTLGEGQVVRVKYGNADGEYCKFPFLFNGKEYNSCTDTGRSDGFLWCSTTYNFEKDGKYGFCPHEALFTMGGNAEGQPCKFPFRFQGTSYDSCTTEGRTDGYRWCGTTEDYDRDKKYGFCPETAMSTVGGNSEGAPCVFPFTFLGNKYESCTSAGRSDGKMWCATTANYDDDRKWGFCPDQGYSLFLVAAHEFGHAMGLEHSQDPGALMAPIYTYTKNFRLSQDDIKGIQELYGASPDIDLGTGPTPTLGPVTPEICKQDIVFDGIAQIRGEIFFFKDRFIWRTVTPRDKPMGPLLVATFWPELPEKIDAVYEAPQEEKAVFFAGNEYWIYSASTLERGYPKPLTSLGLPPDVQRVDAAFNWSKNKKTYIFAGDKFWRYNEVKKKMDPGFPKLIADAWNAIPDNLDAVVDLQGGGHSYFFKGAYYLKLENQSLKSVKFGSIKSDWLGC
Chain of MMP-9h (P14780 94-707): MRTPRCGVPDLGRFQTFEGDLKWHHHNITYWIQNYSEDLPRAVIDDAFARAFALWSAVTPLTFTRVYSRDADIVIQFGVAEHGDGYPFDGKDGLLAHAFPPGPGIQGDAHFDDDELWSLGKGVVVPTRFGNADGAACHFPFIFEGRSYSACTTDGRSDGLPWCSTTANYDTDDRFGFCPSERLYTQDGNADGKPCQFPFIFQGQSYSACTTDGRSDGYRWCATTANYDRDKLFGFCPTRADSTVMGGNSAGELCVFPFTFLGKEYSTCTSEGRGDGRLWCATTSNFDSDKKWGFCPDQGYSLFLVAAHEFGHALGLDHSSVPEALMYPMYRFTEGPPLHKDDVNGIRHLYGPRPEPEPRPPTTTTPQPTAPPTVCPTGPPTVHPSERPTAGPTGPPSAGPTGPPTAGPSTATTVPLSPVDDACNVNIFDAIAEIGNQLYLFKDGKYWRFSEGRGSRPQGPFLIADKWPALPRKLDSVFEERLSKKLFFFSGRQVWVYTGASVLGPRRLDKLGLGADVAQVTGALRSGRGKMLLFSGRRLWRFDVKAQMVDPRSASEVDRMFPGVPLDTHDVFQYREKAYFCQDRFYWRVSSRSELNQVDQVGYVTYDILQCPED

SMILES | Ki (MMP-9h; read-out: Ki MMP-9h) [nM] | Ki (MMP-3h; read-out: Ki MMP-3h) [nM] | Ki (MMP-12h; read-out: Ki MMP-12h) [nM] | Ki (MMP-13h; read-out: Ki MMP-13h) [nM] | Ki (MMP-8h; read-out: Ki MMP-8h) [nM] | Ki (MMP-2h; read-out: Ki MMP-2h) [nM] | Ki (MMP-14h; read-out: Ki MMP-14h) [nM] | Ki (MMP-10h; read-out: Ki MMP-10h) [nM] | Ki (MMP-9h) [nM] | Ki (MMP-3h) [nM] | Ki (MMP-12h) [nM] | Ki (MMP-13h) [nM] | Ki (MMP-8h) [nM] | Ki (MMP-2h) [nM] | Ki (MMP-14h) [nM] | Ki (MMP-10h) [nM]
NC(=O)CC[C@H](NC(=O)[C@H](CCC(N)=O)NC(=O)CCc1ccc(-c2ccccc2)cc1)C(N)=O [Compound 43, (S)-2-(3-(biphenyl-4-yl)propanamido)-N^1-((S)-1,5-diamino-1,5-dioxopentan-2-yl)pentanediamide] | > 1000 | > 1000 | 306 | 259 | 657 | 319 | > 5000 | > 5000 | – | – | – | – | – | – | – | –
NC(=O)[C@H](Cc1c[nH]cn1)NC(=O)[C@H](CCC(=O)O)NC(=O)CCc1ccc(-c2ccccc2)cc1 [Compound 48, (S)-5-((S)-1-amino-3-(1H-imidazol-4-yl)-1-oxopropan-2-ylamino)-4-(3-(biphenyl-4-yl)propanamido)-5-oxopentanoic acid] | > 5000 | > 10000 | 75 | > 1000 | 339 | 847 | > 10000 | > 1000 | – | – | – | – | – | – | – | –
NC(=O)[C@H](CO)NC(=O)[C@H](CCC(=O)O)NC(=O)CCc1ccc(-c2ccccc2)cc1 [Compound 49, (S)-5-((S)-1-amino-3-hydroxy-1-oxopropan-2-ylamino)-4-(3-(biphenyl-4-yl)propanamido)-5-oxopentanoic acid] | > 1000 | > 5000 | 41 | > 1000 | 204 | 790 | > 1000 | > 1000 | – | – | – | – | – | – | – | –
NC(=O)[C@H](CCC(=O)O)NC(=O)[C@H](CC(=O)O)NC(=O)CCc1cc(-c2ccc(-c3cccc(Cl)c3)cc2)no1 [Compound 9, (S)-5-amino-4-((S)-3-carboxy-2-(3-(3-(3′-chlorobiphenyl-4-yl)isoxazol-5-yl)propanamido)propanamido)-5-oxopentanoic acid] | > 1000 | 381 | 64 | 35 | 899 | 91 | > 5000 | 520 | – | – | – | – | – | – | – | –
C[C@H](NC(=O)[C@H](CCC(=O)O)NC(=O)CCc1cc(-c2ccc(-c3ccccc3)cc2)no1)C(N)=O [Compound 23, (S)-5-((S)-1-amino-1-oxopropan-2-ylamino)-4-(3-(3-(biphenyl-4-yl)isoxazol-5-yl)propanamido)-5-oxopentanoic acid] | > 1000 | 460 | 11.2 | 80 | 351 | 78 | > 1000 | 276 | – | – | – | – | – | – | – | –
NC(=O)[C@H](CCC(=O)O)NC(=O)[C@H](CCC(=O)O)NC(=O)CCc1ccc(-n2cccc2)cc1 [Compound 36, (S)-4-(3-(4-(1H-pyrrol-1-yl)phenyl)propanamido)-5-((S)-1-amino-4-carboxy-1-oxobutan-2-ylamino)-5-oxopentanoic acid] | – | – | – | – | – | – | – | – | > 1000 | > 1000 | 59 | > 1000 | 373 | > 1000 | > 5000 | > 1000
NC(=O)[C@H](CCC(=O)O)NC(=O)[C@H](CCC(=O)O)NC(=O)CCc1ccc(C#Cc2ccccc2)cc1 [Compound 30, (S)-5-amino-4-((S)-4-carboxy-2-(3-(4-(phenylethynyl)phenyl)propanamido)butanamido)-5-oxopentanoic acid] | 235 | > 1000 | 154 | 598 | 818 | > 1000 | > 1000 | > 1000 | – | – | – | – | – | – | – | –
Cc1csc(-c2ccc(CCC(=O)N[C@@H](CCC(=O)O)C(=O)N[C@@H](CCC(=O)O)C(N)=O)cc2)c1 [Compound 94, (S)-5-amino-4-((S)-4-carboxy-2-(3-(4-(4-methylthiophen-2-yl)phenyl)propanamido)butanamido)-5-oxopentanoic acid] | > 1000 | > 1000 | 22 | > 1000 | 233 | 868 | > 10000 | > 1000 | – | – | – | – | – | – | – | –
CC(C)C[C@H](NC(=O)CCc1ccc(-c2ccc(-c3ccccc3)cc2)cc1)C(=O)N[C@@H](CCC(=O)O)C(N)=O [Compound 79, (S)-5-amino-4-((S)-4-methyl-2-(3-(4′-phenylbiphenyl-4-yl)propanamido)pentanamido)-5-oxopentanoic acid] | > 100000 | 203 | > 1000 | 443 | > 1000 | > 1000 | > 10000 | > 1000 | – | – | – | – | – | – | – | –
NC(=O)[C@H](CCC(=O)O)NC(=O)[C@H](CCC(=O)O)NC(=O)CCc1ccc(Oc2ccccc2)cc1 [Compound 28, (S)-5-amino-4-((S)-4-carboxy-2-(3-(4-phenoxyphenyl)propanamido)butanamido)-5-oxopentanoic acid] | > 10000 | > 5000 | 856 | 309 | > 1000 | > 1000 | > 1000 | > 1000 | – | – | – | – | – | – | – | –
O=C(O)CC[C@H](NC(=O)CCc1ccc(-c2ccc(-c3ccccc3)cc2)cc1)C(=O)Nc1cccc(CC(=O)O)c1 [Compound 71, (S)-5-(3-(carboxymethyl)phenylamino)-4-(3-(4′-phenylbiphenyl-4-yl)propanamido)-5-oxopentanoic acid] | 645 | 34 | 1.05 | 10.2 | 99 | 18.1 | 696 | 7.7 | – | – | – | – | – | – | – | –
NC(=O)[C@H](CCC(=O)O)NC(=O)[C@H](CCC(=O)O)NC(=O)CCc1ccc(-c2ncccn2)cc1 [Compound 32, (S)-5-amino-4-((S)-4-carboxy-2-(3-(4-(pyrimidin-2-yl)phenyl)propanamido)butanamido)-5-oxopentanoic acid] | > 1000 | > 1000 | 969 | 641 | > 1000 | > 5000 | > 1000 | > 5000 | – | – | – | – | – | – | – | –
NC(=O)[C@H](CC(=O)O)NC(=O)[C@H](CC(=O)O)NC(=O)CCc1cc(-c2ccc(-c3cccc(Cl)c3)cc2)no1 [Compound 10, (S)-4-amino-3-((S)-3-carboxy-2-(3-(3-(3′-chlorobiphenyl-4-yl)isoxazol-5-yl)propanamido)propanamido)-4-oxobutanoic acid] | > 1000 | 85 | 59 | 18 | 649 | 86 | > 1000 | 93 | – | – | – | – | – | – | – | –
NC(=O)[C@H](Cc1ccc(O)cc1)NC(=O)[C@H](CCC(=O)O)NC(=O)CCc1ccc(-c2cccs2)cc1 [Compound 84, (S)-5-((S)-1-amino-3-(4-hydroxyphenyl)-1-oxopropan-2-ylamino)-5-oxo-4-(3-(4-(thiophen-2-yl)phenyl)propanamido)pentanoic acid] | 859 | > 5000 | 20.9 | 584 | 41 | 140 | > 1000 | 514 | – | – | – | – | – | – | – | –
NC(=O)[C@H](CCC(=O)O)NC(=O)[C@H](Cc1c[nH]cn1)NC(=O)CCc1ccc(-c2ccc(-c3ccccc3)cc2)cc1 [Compound 77, (S)-4-((S)-3-(1H-imidazol-4-yl)-2-(3-(4′-phenylbiphenyl-4-yl)propanamido)propanamido)-5-amino-5-oxopentanoic acid] | > 50000 | > 1000 | 234 | 377 | > 1000 | > 1000 | > 10000 | > 5000 | – | – | – | – | – | – | – | –
